Test results as given in patent US20080268451A1, “MEASUREMENT OF AN INSOLUBLE ANALYTE IN A SAMPLE” (priority 2007, published 2008).

Legend:
Cyp2D15 = assay: qNPA gene expression, rifampicin-treated canine hepatocytes; format: cell-based; settings: 0-10 μM rifampicin
Cyp2A337 = settings: canine hepatocytes, 0-10 μM rifampicin, qNPA
Cyp2B6 = assay: qNPA gene expression, rifampicin-treated human primary liver cells; settings: 0-10 μM rifampicin
Cyp2D6 = assay: as above; settings: 0-10 μM rifampicin
Cyp1A1 = assay: qNPA gene expression, rifampicin-treated canine hepatocytes; format: cell-based; settings: 0-10 μM rifampicin

CO[C@H]1/C=C/O[C@@]2(C)Oc3c(C)c(O)c4c(O)c(c(/C=N/N5CCN(C)CC5)c(O)c4c3C2=O)NC(=O)/C(C)=C\C=C\[C@H](C)[C@H](O)[C@@H](C)[C@@H](O)[C@@H](C)[C@H](OC(C)=O)[C@@H]1C [rifampicin]
Cyp2D15 gene expression (Cyp2D15): upregualted
Cyp2A337 gene expression (Cyp2A337): upregualted
Cyp2B6 transcript level (enzyme induction) (Cyp2B6): induced
Cyp2D6 transcript level (Cyp2D6; qNPA): suppressed
suppression of Cyp2D6 (Cyp2D6; qNPA (Panel a of FIG. 27)): less than 50%
Cyp1A1 gene expression (Cyp1A1): upregualted
